Test system: Puccinia recondita
Experiment: Effect on Wheat brown rust (preventive spray test)
Assay type: in vivo
Conditions: conc. of active ingredient 20 ppm, 7 days after inoculation

In order of rising “Preventive rate (%)” value:
1. CNC(=O)/C(=N/OC)c1ccccc1COc1ccc2c(c1)OCC2=NOC(C)C [a-40]  97%
2. CON=C(C(=O)OC)c1ccccc1COc1ccc2c(c1C)OCCC2=NOC [c-15]  100%
3. CNC(=O)C(=NOC)c1ccccc1COc1ccc2c(c1C)OCCC2=NOC [c-16]  100%

Same assay, conditions: conc. of active ingredient 100 ppm, 7 days after inoculation

In order of rising “Preventive rate (%)” value:
1. CNC(=O)/C(=N/OC)c1ccccc1COc1ccc2c(c1)OCC2=NOC(C)C [a-40]  100%
2. CON=C(C(=O)OC)c1ccccc1COc1ccc2c(c1C)OCCC2=NOC [c-15]  100%
3. CNC(=O)C(=NOC)c1ccccc1COc1ccc2c(c1C)OCCC2=NOC [c-16]  100%

Test system: Pyricularia oryzae
Experiment: not given
Assay type: in vivo
Conditions: Rice blast; conc. of active ingredient 20 ppm; 7 days after inoculation

In order of falling “Preventive rate (%)” value:
1. CNC(=O)C(=NOC)c1ccccc1COc1ccc2c(c1C)OCCC2=NOC [c-16]  91%
2. CON=C1c2ccc(OCc3ccccc3/C(=N\OC)C(=O)OC)c(C)c2OC1C (stereo not drawn) [b-6]  84%
3. CON=C(C(=O)OC)c1ccccc1COc1ccc2c(c1C)OCCC2=NOC [c-15]  80%

Same assay, conditions: Rice blast; conc. of active ingredient 100 ppm; 7 days after inoculation

In order of falling “Preventive rate (%)” value:
1. CON=C(C(=O)OC)c1ccccc1COc1ccc2c(c1C)OCCC2=NOC [c-15]  100%
2. CNC(=O)C(=NOC)c1ccccc1COc1ccc2c(c1C)OCCC2=NOC [c-16]  100%
3. CON=C1c2ccc(OCc3ccccc3/C(=N\OC)C(=O)OC)c(C)c2OC1C (stereo not drawn) [b-6]  88%

Test system: Psecidoperonospora cubensis
Experiment: Effect on Cucumber downy mildew (preventive spray test)
Assay type: in vivo
Conditions: conc. of active ingredient 4 ppm, 7 days after inoculation

`CON=C(C(=O)OC)c1ccccc1COc1ccc2c(c1C)OCCC2=NOC` [c-15] was tested, and the “Preventive rate (%)” value was 81%.

Same assay, conditions: conc. of active ingredient 20 ppm, 7 days after inoculation

In order of rising “Preventive rate (%)” value:
1. CNC(=O)/C(=N/OC)c1ccccc1COc1ccc2c(c1)OCC2=NOC(C)C [a-40]  97%
2. CNC(=O)/C(=N/OC)c1ccccc1COc1ccc2c(c1)OCC2=NOC/C=C/Cl [a-63]  100%
3. CON=C1c2ccc(OCc3ccccc3/C(=N\OC)C(=O)OC)c(C)c2OC1C (stereo not drawn) [b-6]  100%
4. CON=C(C(=O)OC)c1ccccc1COc1ccc2c(c1C)OCCC2=NOC [c-15]  100%

Same assay, conditions: conc. of active ingredient 100 ppm, 7 days after inoculation

In order of falling “Preventive rate (%)” value:
1. CNC(=O)/C(=N/OC)c1ccccc1COc1ccc2c(c1)OCC2=NOC(C)C [a-40]  100%
2. CNC(=O)/C(=N/OC)c1ccccc1COc1ccc2c(c1)OCC2=NOC/C=C/Cl [a-63]  100%
3. CON=C1c2ccc(OCc3ccccc3/C(=N\OC)C(=O)OC)c(C)c2OC1C (stereo not drawn) [b-6]  100%
4. CON=C(C(=O)OC)c1ccccc1COc1ccc2c(c1C)OCCC2=NOC [c-15]  100%

Test system: Botrytis cinerea
Experiment: Effect on Cucumber gray mold (cotyledon paper disc test)
Assay type: in vivo
Conditions: conc. of active ingredient 20 ppm, 3 days after inoculation

In order of falling “Preventive rate (%)” value:
1. CNC(=O)/C(=N/OC)c1ccccc1COc1ccc2c(c1)OCC2=NOC(C)C [a-40]  100%
2. CNC(=O)/C(=N/OC)c1ccccc1COc1ccc2c(c1)OCC2=NOC/C=C/Cl [a-63]  100%
3. CON=C(C(=O)OC)c1ccccc1COc1ccc2c(c1C)OCCC2=NOC [c-15]  75%
4. CNC(=O)C(=NOC)c1ccccc1COc1ccc2c(c1C)OCCC2=NOC [c-16]  49%

Same assay, conditions: conc. of active ingredient 100 ppm, 3 days after inoculation

In order of rising “Preventive rate (%)” value:
1. CNC(=O)C(=NOC)c1ccccc1COc1ccc2c(c1C)OCCC2=NOC [c-16]  60%
2. CON=C(C(=O)OC)c1ccccc1COc1ccc2c(c1C)OCCC2=NOC [c-15]  77%
3. CNC(=O)/C(=N/OC)c1ccccc1COc1ccc2c(c1)OCC2=NOC(C)C [a-40]  100%
4. CNC(=O)/C(=N/OC)c1ccccc1COc1ccc2c(c1)OCC2=NOC/C=C/Cl [a-63]  100%

Test system: Erysiphe graminis
Experiment: Effects on Barley powdery mildew (preventive spray test)
Assay type: in vivo
Conditions: conc. of active ingredient 4 ppm, lesions counted seven days after inoculation

In order of rising “Preventive rate (%)” value:
1. CNC(=O)/C(=N/OC)c1ccccc1COc1ccc2c(c1)OCC2=NOC/C=C/Cl [a-63]  99%
2. CON=C(C(=O)OC)c1ccccc1COc1ccc2c(c1C)OCCC2=NOC [c-15]  100%

Same assay, conditions: conc. of active ingredient 20 ppm, lesions counted seven days after inoculation

In order of falling “Preventive rate (%)” value:
1. CNC(=O)/C(=N/OC)c1ccccc1COc1ccc2c(c1)OCC2=NOC/C=C/Cl [a-63]  100%
2. CON=C(C(=O)OC)c1ccccc1COc1ccc2c(c1C)OCCC2=NOC [c-15]  100%
3. CNC(=O)C(=NOC)c1ccccc1COc1ccc2c(c1C)OCCC2=NOC [c-16]  100%
4. CON=C1c2ccc(OCc3ccccc3/C(=N\OC)C(=O)OC)c(C)c2OC1C (stereo not drawn) [b-6]  89%

Same assay, conditions: conc. of active ingredient 100 ppm, lesions counted seven days after inoculation

In order of rising “Preventive rate (%)” value:
1. CON=C1c2ccc(OCc3ccccc3/C(=N\OC)C(=O)OC)c(C)c2OC1C (stereo not drawn) [b-6]  90%
2. CNC(=O)/C(=N/OC)c1ccccc1COc1ccc2c(c1)OCC2=NOC/C=C/Cl [a-63]  100%
3. CON=C(C(=O)OC)c1ccccc1COc1ccc2c(c1C)OCCC2=NOC [c-15]  100%
4. CNC(=O)C(=NOC)c1ccccc1COc1ccc2c(c1C)OCCC2=NOC [c-16]  100%

Test system: Chochliobolus miyabeanus
Experiment: Effect on Rice brown spot (preventive spray test)
Assay type: in vivo
Conditions: conc. of active ingredient 20 ppm, 7 days after inoculation

In order of falling “Preventive rate (%)” value:
1. CON=C(C(=O)OC)c1ccccc1COc1ccc2c(c1C)OCCC2=NOC [c-15]  97%
2. CON=C1c2ccc(OCc3ccccc3/C(=N\OC)C(=O)OC)c(C)c2OC1C (stereo not drawn) [b-6]  70%

Same assay, conditions: conc. of active ingredient 100 ppm, 7 days after inoculation

In order of rising “Preventive rate (%)” value:
1. CON=C1c2ccc(OCc3ccccc3/C(=N\OC)C(=O)OC)c(C)c2OC1C (stereo not drawn) [b-6]  90%
2. CON=C(C(=O)OC)c1ccccc1COc1ccc2c(c1C)OCCC2=NOC [c-15]  100%

Test system: Phytophthora infestans
Experiment: not given
Assay type: in vivo
Conditions: Tomato late blight; conc. of active ingredient 4 ppm; 5 days after inoculation

In order of rising “Preventive rate (%)” value:
1. CON=C(C(=O)OC)c1ccccc1COc1ccc2c(c1C)OCCC2=NOC [c-15]  84%
2. CNC(=O)C(=NOC)c1ccccc1COc1ccc2c(c1C)OCCC2=NOC [c-16]  84%

Same assay, conditions: Tomato late blight; conc. of active ingredient 20 ppm; 5 days after inoculation

In order of falling “Preventive rate (%)” value:
1. CNC(=O)C(=NOC)c1ccccc1COc1ccc2c(c1C)OCCC2=NOC [c-16]  100%
2. CON=C(C(=O)OC)c1ccccc1COc1ccc2c(c1C)OCCC2=NOC [c-15]  94%
3. CON=C1c2ccc(OCc3ccccc3/C(=N\OC)C(=O)OC)c(C)c2OC1C (stereo not drawn) [b-6]  92%

Same assay, conditions: Tomato late blight; conc. of active ingredient 100 ppm; 5 days after inoculation

In order of falling “Preventive rate (%)” value:
1. CON=C(C(=O)OC)c1ccccc1COc1ccc2c(c1C)OCCC2=NOC [c-15]  100%
2. CNC(=O)C(=NOC)c1ccccc1COc1ccc2c(c1C)OCCC2=NOC [c-16]  100%
3. CON=C1c2ccc(OCc3ccccc3/C(=N\OC)C(=O)OC)c(C)c2OC1C (stereo not drawn) [b-6]  94%
